Two compounds from PubChem BioAssay (NCI) can be followed below.

Holding throughout (test): NCI anticancer screen, dose series, 48 h
Assay [1] concerns HCT-15 colon.
In assay [2] the test system is HCC-2998 colon.
Assay [3] concerns RPMI-8226 leukemia.
The test system of assay [4] is PC-3 prostate.
Assay [5] deals with SR leukemia.
The test system of assay [6] is NCI/ADR-RES ovarian.
The test system of assay [7] is SK-MEL-5 melanoma.
The subject of assay [8] is MDA-MB-231 breast.
In assay [9] the test system is CCRF-CEM leukemia.
Assay [10] deals with T-47D breast.

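Cultured in 96-well plates, cells were exposed to test compound for 48 hours across five concentrations. Here, GI50 denotes the concentration required for 50% inhibition of growth. TGI is the concentration that stops growth completely.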

On to `C/C(=C\c1ccn(-c2ccccc2N)n1)[C@@H]1C[C@@H]2O[C@]2(C)CCC[C@H](C)[C@H](O)[C@@H](C)C(=O)C(C)(C)[C@@H](O)CC(=O)O1`, for which the GI50 in assay [1] is 39.3 nM; in [2], 46.7 nM; in [3], 18.8 nM; in assay [4] it was 37.1 nM; in [5], 26.7 nM; in assay [6] it was 154 nM. Moreover, the GI50 is 28.6 nM in [7], 247 nM in [8], 34.3 nM in [9] and 69.2 nM in [10]. The TGI in assay [1] is over 50000 nM; in assay [2], over 18300 nM; in [3], over 24100 nM; in assay [4], over 50000 nM; in assay [5], over 50000 nM; in assay [6] it was 7210 nM. For the same compound, the TGI in [7], in assay [8], in assay [9] and in [10] was over 50000 nM each time.
Turning to `CN(C)C(=O)Nc1nc2cc(Cl)c(Cl)cc2[nH]1`, the GI50 in [1] was 546 nM; in [2] it was 2500 nM; in assay [3] it was 1370 nM; in assay [4], 566 nM; in assay [5] it was 222 nM; in [6], 507 nM. For the same compound, the GI50 was 441 nM in assay [7], 3420 nM in assay [8], 953 nM in assay [9] and 655 nM in assay [10]. Also, the TGI in [1] is over 100000 nM; in assay [2], over 47100 nM; in [3], over 100000 nM; in assay [4], over 51800 nM; in assay [6], 9370 nM; in [7], over 100000 nM. For the same compound, the TGI in assay [8], in assay [9] and in assay [10] was over 100000 nM throughout.
